The record followed here is ChEMBL document CHEMBL5505997, “Synthesis and biological evaluation of novel peptidomimetic inhibitors of the coronavirus 3C-like protease” (Eur J Med Chem, 2024).

One data set concerns Caco-2. Nature of the data set: (§1) Cytotoxicity against human Caco-2 cells assessed as reduction in cell viability. The format is toxicity, cell-based. Conditions: caco-2.
Another data set concerns CCRF-CEM. Nature of the data set: Cytotoxicity against human CEM cells assessed as reduction in cell viability. The format is toxicity, cell-based. Conditions: ccrf-cem.
In a further data set the test system is Human coronavirus OC43. Nature of the data set: Antiviral activity against Human coronavirus OC43 infected in Vero cells assessed as reduction in viral yield preincubated with virus for 1 hr followed by washout and compound treatment and measured after 3 days by qRT-PCR analysis. The format is functional, organism-based. Conditions: Betacoronavirus 1, Vero; for EC90: 72 h, time 3 day. Background: Quantitative PCR measures a nucleic acid by following its amplification.

In data set [1] the test system is SARS-CoV-2. Nature of the data set: Selectivity ratio of EC50 for antiviral activity against SARS-CoV-2 infected in Vero cells to EC50 for antiviral activity against SARS-CoV-2 infected in human Calu-3 cells. The format is functional, Severe acute respiratory syndrome coronavirus 2.
In a further data set the test system is Huh-7. Nature of the data set: Cytotoxicity against human Huh-7 cells assessed as reduction in cell viability. The format is toxicity, cell-based. The conditions noted are these: huh-7.
The subject of data set [2] is SARS-CoV-2. Nature of the data set: Antiviral activity against SARS-CoV-2 infected in human Calu-3 cells assessed as reduction in viral yield measured after 72 hrs by qRT-PCR analysis. The conditions noted are these: for EC90: Severe acute respiratory syndrome coronavirus 2, Calu-3, time 72 hrs. It counts as functional, organism-based, Severe acute respiratory syndrome coronavirus 2.

Data set [3] concerns SARS-CoV-2. Nature of the data set: Antiviral activity against SARS-CoV-2 infected in Vero cells assessed as reduction in viral yield measured after 48 hrs by qRT-PCR analysis. Conditions: Severe acute respiratory syndrome coronavirus 2, Vero; for EC50: 48 h; for EC90: time 48 hrs. It counts as functional, organism-based.
Another data set relates to Calu-3. Nature of the data set: (§2) Cytotoxicity against human Calu-3 cells assessed as reduction in cell viability. The format is toxicity, cell-based. The conditions noted are these: calu-3.
Data set [4] in a line: Cytotoxicity against human PBMC cells assessed as reduction in cell viability. It counts as toxicity, cell-based. Conditions: pbmc.
The test system of data set [5] is SARS-CoV-2. Nature of the data set: Antiviral activity against SARS-CoV-2 infected in human Caco-2 cells assessed as reduction in viral yield measured after 72 hrs by qRT-PCR analysis. The conditions noted are these: for EC90: Severe acute respiratory syndrome coronavirus 2, Caco-2, time 72 hrs. It counts as functional, organism-based, Severe acute respiratory syndrome coronavirus 2.

The nature of data set [6]: Cytotoxicity against African green monkey Vero cells assessed as reduction in cell viability. The format is toxicity, cell-based. Conditions: chlorocebus sabaeus.
In data set [7] the test system is SARS-CoV-2. Nature of the data set: Selectivity ratio of EC50 for antiviral activity against SARS-CoV-2 infected in Vero cells to EC50 for antiviral activity against SARS-CoV-2 infected in human Caco-2 cells. It counts as functional, Severe acute respiratory syndrome coronavirus 2.
The subject of data set [8] is SARS-CoV-2. Nature of the data set: Antiviral activity against SARS-CoV-2 hCoV-19/USA-WA1/2020 Washington strain infected in Normal human bronchial/tracheal epithelial cells cultured in air-liquid interface media assessed as reduction in viral yield pretreated with compound followed by viral infection for 4 hrs post washout and measured 3 days after virus removal by qRT-PCR analysis. The format is functional, organism-based. The conditions noted are these: Severe acute respiratory syndrome coronavirus 2, hCoV-19/USA-WA1/2020 Washington, Epithelial cell.

Data set [9] deals with SARS-CoV-2. Nature of the data set: Antiviral activity against SARS-CoV-2 hCoV-19/USA/GA-EHC-2811C/2021 (Omicron B.1.1.529) infected in human Calu-3 cells assessed as reduction in viral yield measured after 48 hrs by qRT-PCR analysis. It counts as functional, organism-based. The conditions noted are these: Severe acute respiratory syndrome coronavirus 2, hCoV-19/USA/GA-EHC-2811C/2021 (Omicron B.1.1.529); for EC50: Calu-3, 48 h; for EC90: Calu-3, time 48 hrs.

The nature of data set [10]: Solubility of compound in PBS. It counts as physicochemical. Conditions: buffer.
A short description of data set [11]: as §1. It counts as toxicity, cell-based. Conditions: Caco-2 cells.
Data set [12] deals with SARS-CoV-2. Nature of the data set: Antiviral activity against wild type SARS-CoV-2 Omicron BA.1 infected in HEK293T cells measured after 48 hrs by Nano-Glo luciferase assay. The format is functional, organism-based. The conditions noted are these: Severe acute respiratory syndrome coronavirus 2, Omicron BA.1, HEK-293T.
Data set [13] is described as follows: as §2. The conditions noted are these: Calu-3 cells. The format is toxicity, cell-based.
Data set [14] deals with SARS-CoV-2. Nature of the data set: Antiviral activity against wild type SARS-CoV-2 WA1 infected in HEK293T cells measured after 48 hrs by Nano-Glo luciferase assay. It counts as functional, organism-based. The conditions noted are these: Severe acute respiratory syndrome coronavirus 2, WA1, HEK-293T.

One may read the CC50 as the concentration giving 50% cytotoxicity. As usually defined, the EC50 is the concentration needed to bring the measured effect to its halfway point. Usually EC90 stands for the concentration at which the effect reaches the 90% level. The term solubility denotes the dissolved amount per volume that the medium holds. As to `Cc1cc(C(=O)N[C@@H](Cc2cccc3ccccc23)C(=O)N[C@@H](CC(C)C)C(=O)N[C@@H](C[C@@H]2CCCNC2=O)C(O)S(=O)(=O)[O-])no1.[Na+]` (stereo partly drawn), the CC50 in the data set on Caco-2 was > 100 µM; in the data set with CCRF-CEM it was 24.3 µM; with Huh-7, 51.1 µM; in the data set with Calu-3, > 100 µM; in [4], 58.6 µM; in [6] (vero), > 100 µM. Besides, the EC50 worked out at 0.3 µM in the data set on Human coronavirus OC43; 1.2 µM in the data set with SARS-CoV-2 [2] (Severe acute respiratory syndrome coronavirus 2, Calu-3, 72 h); 4.5 µM with SARS-CoV-2 [3]; 0.4 µM with SARS-CoV-2 [8]; 0.8 µM in the data set on SARS-CoV-2 [9]. Moreover, the “Ratio EC50” value in the data set on SARS-CoV-2 [1] is on record as 3; in the data set with SARS-CoV-2 [7], 15. For the same molecule, the concentration for an effect of 90% (EC90) was determined as 5.3 µM in the data set on SARS-CoV-2 [2]; 9.3 µM in the data set with SARS-CoV-2 [3]; 1.7 µM with SARS-CoV-2 [5]; 0.7 µM in the data set on SARS-CoV-2 [8]; 2.7 µM with SARS-CoV-2 [9]. Further, the solubility in [10] came to 400 µg/mL.

In the case of `CCC(CC)COC(=O)[C@H](C)N[P@](=O)(OC[C@H]1O[C@@](C#N)(c2ccc3c(N)ncnn23)[C@H](O)[C@@H]1O)Oc1ccccc1`, the CC50 in [11] was > 100 µM; in the data set on CCRF-CEM, 11.2 µM; in the data set on Huh-7 it was 1.4 µM; in data set [13] it was > 100 µM; in data set [4], 4.9 µM; in data set [6] (Vero cells) it was > 100 µM. For the same molecule, the EC50 with SARS-CoV-2 [12] turned out to be 0.014 µM; in the data set on Human coronavirus OC43, 0.01 µM; in the data set with SARS-CoV-2 [3], 3.2 µM; in the data set on SARS-CoV-2 [5] (Severe acute respiratory syndrome coronavirus 2, Caco-2, 72 h), 0.03 µM; in the data set with SARS-CoV-2 [14], 0.01 µM; in the data set on SARS-CoV-2 [8], 0.5 µM. Moreover, the EC50 with SARS-CoV-2 [9] was 0.2 µM. The EC90 in the data set on Human coronavirus OC43 was determined as 0.03 µM; with SARS-CoV-2 [2], 0.7 µM; in the data set on SARS-CoV-2 [3] it was 4.7 µM; with SARS-CoV-2 [5] it was 0.2 µM; in the data set with SARS-CoV-2 [8], 0.9 µM; in the data set on SARS-CoV-2 [9], 0.6 µM.

Take `CC(C)C[C@H](NC(=O)[C@H](Cc1cccc2ccccc12)NC(=O)OCc1ccccc1)C(=O)N[C@H](C=O)CNC(=O)N1CCC1`: the CC50 in the data set on CCRF-CEM is 43.6 µM; in the data set on Huh-7 it was 43.6 µM; in [4], > 100 µM; in data set [6] (vero), > 100 µM. Moreover, the EC50 was 18 µM in the data set with Human coronavirus OC43 and > 10 µM in the data set with SARS-CoV-2 [3]. The EC90 is 84 µM in the data set with Human coronavirus OC43 and > 10 µM in the data set with SARS-CoV-2 [3].

Consider `CC(C)C[C@H](NC(=O)[C@H](Cc1cccc2ccccc12)NC(=O)OCc1ccccc1)C(=O)N[C@H](C#N)C[C@@H]1CCCNC1=O`, for which the half-maximal cytotoxic concentration (CC50) (in the data set with CCRF-CEM; with Huh-7; in data set [4]; in data set [6] (vero)) was > 100 µM each time. Besides, the EC50 was 0.7 µM in the data set on Human coronavirus OC43 and > 10 µM with SARS-CoV-2 [3]. The EC90 in the data set on Human coronavirus OC43 is 5.1 µM; in the data set on SARS-CoV-2 [3] it was > 10 µM.

As for `CCOC(=O)/C=C/[C@H](C[C@@H]1CCCNC1=O)NC(=O)[C@H](CC(C)C)NC(=O)[C@H](Cc1cccc2ccccc12)NC(=O)c1cc(C)on1`, the CC50 in the data set with CCRF-CEM is 33.4 µM; in the data set with Huh-7 it was 51.4 µM; in data set [4] it was > 100 µM; in data set [6] (vero), > 100 µM. The EC50 was 7.3 µM with Human coronavirus OC43 and > 10 µM in the data set with SARS-CoV-2 [3]. For the same molecule, the EC90 in the data set on Human coronavirus OC43 is 9.7 µM; in the data set on SARS-CoV-2 [3] it was > 10 µM.

Consider `CC(C)C[C@H](NC(=O)[C@H](Cc1cccc2ccccc12)NC(=O)c1cc(C(F)(F)F)on1)C(=O)N[C@H](C=O)C[C@@H]1CCCNC1=O`, for which the CC50 was found to be 20.3 µM with CCRF-CEM, 42.5 µM with Huh-7, 49.9 µM in [4] and 49.9 µM in [6] (vero). The EC50 was 0.7 µM in the data set on Human coronavirus OC43 and 6.1 µM in the data set with SARS-CoV-2 [3]. The EC90 in the data set on Human coronavirus OC43 amounted to 1 µM; in the data set on SARS-CoV-2 [3] it was 9.9 µM.

Regarding `CC(C)C[C@H](NC(=O)[C@H](Cc1cccc2ccccc12)NC(=O)OCc1ccccc1)C(=O)N[C@H](C=O)C[C@@H]1CCCNC1=O`, the CC50 in the data set on CCRF-CEM is 24.3 µM; in the data set on Huh-7, 38.9 µM; in data set [4], 42.4 µM; in data set [6] (vero) it was > 100 µM. For the same molecule, the EC50 amounted to 0.7 µM in the data set with Human coronavirus OC43 and 2.6 µM with SARS-CoV-2 [3]. Moreover, the EC90 came to 1 µM in the data set on Human coronavirus OC43 and 5.9 µM with SARS-CoV-2 [3].
